Test results published in ChEMBL document CHEMBL2073810, “Mrp2 is essential for estradiol-17beta(beta-D-glucuronide)-induced cholestasis in rats” (Hepatology, 2000).

Columns and labels:
Format in all cases: functional, cell membranes, Membrane vesicle
[1] = biological target: T1, Bile salt export pump (Rattus norvegicus, UniProt O70127); assay: TP_TRANSPORTER: inhibition of Taurocholate uptake (Taurochorate: 1 uM, E217betaG: 50 uM) in membrane vesicles from Bsep-expressing Sf9 cells; conditions: sf9, 50 µM
T1 sequence (O70127 whole entry): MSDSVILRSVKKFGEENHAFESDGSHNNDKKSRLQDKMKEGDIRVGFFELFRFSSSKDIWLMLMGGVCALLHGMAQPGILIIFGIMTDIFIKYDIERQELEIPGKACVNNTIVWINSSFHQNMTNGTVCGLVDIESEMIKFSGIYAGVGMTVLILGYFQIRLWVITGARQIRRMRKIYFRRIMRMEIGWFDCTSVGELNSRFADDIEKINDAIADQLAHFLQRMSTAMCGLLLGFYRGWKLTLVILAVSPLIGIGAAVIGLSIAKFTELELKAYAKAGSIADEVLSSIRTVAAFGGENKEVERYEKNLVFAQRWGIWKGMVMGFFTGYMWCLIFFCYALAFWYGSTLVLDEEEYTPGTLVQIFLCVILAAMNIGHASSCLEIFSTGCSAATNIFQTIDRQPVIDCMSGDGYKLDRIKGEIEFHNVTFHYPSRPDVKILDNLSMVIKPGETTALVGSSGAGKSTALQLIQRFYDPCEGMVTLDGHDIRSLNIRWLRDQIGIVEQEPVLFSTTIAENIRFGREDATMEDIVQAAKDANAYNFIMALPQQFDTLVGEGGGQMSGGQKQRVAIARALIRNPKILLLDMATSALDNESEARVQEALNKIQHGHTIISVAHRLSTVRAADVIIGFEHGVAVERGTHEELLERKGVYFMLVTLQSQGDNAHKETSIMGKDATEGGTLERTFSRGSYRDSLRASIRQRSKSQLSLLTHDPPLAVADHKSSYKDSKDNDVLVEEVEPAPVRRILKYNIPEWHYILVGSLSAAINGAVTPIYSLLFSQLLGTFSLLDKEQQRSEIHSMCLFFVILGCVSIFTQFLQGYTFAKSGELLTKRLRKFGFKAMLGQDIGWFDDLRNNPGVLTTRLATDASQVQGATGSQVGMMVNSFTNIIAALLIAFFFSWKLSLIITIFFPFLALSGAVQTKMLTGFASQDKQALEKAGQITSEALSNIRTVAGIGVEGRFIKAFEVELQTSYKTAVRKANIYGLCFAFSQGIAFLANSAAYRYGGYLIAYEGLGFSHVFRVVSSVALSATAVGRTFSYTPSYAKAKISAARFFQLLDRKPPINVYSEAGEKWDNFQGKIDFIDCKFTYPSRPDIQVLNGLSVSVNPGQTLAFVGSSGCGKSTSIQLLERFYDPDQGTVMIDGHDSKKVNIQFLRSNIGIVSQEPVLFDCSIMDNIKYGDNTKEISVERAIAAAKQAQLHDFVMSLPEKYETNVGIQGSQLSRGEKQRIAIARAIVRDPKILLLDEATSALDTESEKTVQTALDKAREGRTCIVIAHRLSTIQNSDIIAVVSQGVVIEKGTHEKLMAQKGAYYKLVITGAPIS

[2] = biological target: T1, Bile salt export pump; assay: TP_TRANSPORTER: inhibition of Taurocholate uptake (Taurochorate: 1uM, Ethinyl estradiol: 25 uM) in membrane vesicles from Bsep-expressing Sf9 cells; conditions: sf9, 25 µM
[3] = biological target: T1, Bile salt export pump; assay: TP_TRANSPORTER: inhibition of Taurocholate uptake (Taurochorate: 100 uM, TLC: 10 uM) in membrane vesicles from Bsep-expressing Sf9 cells; conditions: sf9, 10 µM

**Q.** `C[C@]12CC[C@@H]3c4ccc(O)cc4CC[C@H]3[C@@H]1CC[C@@H]2O[C@@H]1O[C@H](C(=O)O)[C@@H](O)[C@H](O)[C@H]1O` [ESTRADIOL 17B GLUCURONIDE] was tested. Which Activity [1] did it give?
**A.** The Activity was “is not an inhibitor [-]”.

**Q.** `C#C[C@]1(O)CC[C@H]2[C@@H]3CCc4cc(O)ccc4[C@H]3CC[C@@]21C` [ETHINYL ESTRADIOL] was tested. Which Activity [2] did it give?
**A.** Its Activity is “is not an inhibitor [-]”.

**Q.** With `C[C@H](CCC(=O)NCCS(=O)(=O)O)[C@H]1CC[C@H]2[C@@H]3CC[C@@H]4C[C@H](O)CC[C@]4(C)[C@H]3CC[C@]12C` [TAUROLITHOCHOLIC ACID] as the molecule, how does the Activity [3] read?
**A.** Its Activity is “inhibitor [+]”.
